{"source": "patent US20240423246A1", "about": "“RAPAMYCIN FOR INCREASED MILK PRODUCTION” (THE STATE OF ISRAEL, MINISTRY OF AGRICULTURE & RURAL …, priority 2023, published 2024)", "key": {"[1]": {"target": "T1, mammalian target of rapamycin (mTOR) (Bos taurus, UniProt E1BFB4)", "experiment": "S6 phosphorylation after 3 weeks of skip-a-day intramammary rapamycin administration (immunoblot)", "assay_type": "in vivo, bovine (Holstein calves)", "description": "(§1) Three-month-old female Holstein calves (˜90 kg body weight [BW]) that were raised on the Volcani Center's experimental farm were used in these experiments. During the experimental periods, each mammary gland was administered via the teat canal with 2 mL of vehicle, composed of sterile PBS containing 10% polyethylene glycol (Sigma, St. Louis, MO) and 10% Tween 80 (Sigma). In individual experiments, the vehicle was supplemented with Evans blue to analyze the penetration of this solution into the mammary epithelium, or with rapamycin to analyze its effect on cellular activities. […]\nProteins from the parenchymal region of each mammary gland were extracted with RIPA buffer containing 10 mM Tris-HCl pH 7.5, 150 mM NaCl, 0.1% SDS, 1% sodium deoxycholate and 5 mM EDTA (Sigma), protease inhibitor cocktail and phosphatase inhibitor cocktail II (both from Sigma). Equal amounts of protein, determined by QPRO-BCA Kit Standard (Cyanagen, Bologna, Italy) according to the manufacturer's protocol, were subjected to SDS-PAGE. […] The expression levels of phosphorylated S6 (pS6) and β-actin were determined according to the signals generated with their respective antibodies. Signals were generated with WESTAR Supernova (Cyanagen, Bologna, Italy) combined with Super Signal chemiluminescent substrate (Thermo Fisher Scientific), and detected in a Syngene analyzer (Cambridge, UK)."}, "[2]": {"test_system": "bovine mammary epithelial stem cell population", "experiment": "Propagation rate of cultured cells from vehicle- and rapamycin-treated glands", "assay_type": "cell-based", "description": "For propagation rate, cells from each treatment were seeded in 96-well cell-culture plates (Corning, Corning, NY) at a density of 10,000 cells/well and cultured in mammary medium composed of DMEM-F12 medium containing 5% FBS, hydrocortisone ([…], Sigma), insulin ([…], Sigma), gentamicin ([…], Biological Industries), streptomycin and penicillin ([…] and 100 U/ml, respectively), hEGF (10 ng/ml, Merck, Darmstadt, Germany), hFGF2 (10 ng/ml, Merck), heparin (4 mg/ml, Merck), cholera toxin (10 ng/ml, Sigma) and B27 ([…], Invitrogen, Carlsbad, CA) (10) for the indicated period.\nRapamycin's effect on cell-propagation rate was analyzed in cultures from individual vehicle- and rapamycin-treated glands (FIG. 4A). This method produces a clear and significant distinction of the bovine mammary epithelial stem cell population from the more differentiated ones."}, "mammary epithelial cells": {"test_system": "mammary epithelial cells", "experiment": "Mammary cell proliferation by PCNA staining after rapamycin followed by estrogen and progesterone", "assay_type": "in vivo, bovine (Holstein calves)", "conditions": "3 weeks 8.3 mg/gland per day, then estrogen and progesterone for 4 days", "description": "FIGS. 6A-6C: (FIG. 6A) lower and (FIG. 6B) higher magnifications of PCNA-stained parenchymal cells and counterstained with hematoxylin. S, small ducts; L, large ducts. Bar=50 μm. (FIG. 6C) PCNA+ cells were analyzed in total (left plot), basal (middle plot) and luminal cell (right plot) populations of the small and large ducts. Six independent microscopic fields (X10 magnification) from each of the six glands treated with vehicle and six glands treated with rapamycin were analyzed. Overall, 127 ducts and 10,619 cells, and 122 ducts and 9999 cells were analyzed in the vehicle-treated and rapamycin-treated glands, respectively. ** P<0.01, *** P<0.001.\nas §1, with “activities. The vehicle was administered using a sterile 22G IV cannula (Deltaven, Viadana, (MN) Italy), cut to ˜1.5 cm and inserted (without the needle) into the teat canal.” for “activities.”"}, "[3]": {"target": "T1, mammalian target of rapamycin (mTOR)", "experiment": "S6 phosphorylation in mammary parenchyma after single intramammary rapamycin administration (immunoblot, immunohistochemistry)", "assay_type": "in vivo, bovine (Holstein calves)", "description": "(§2) Three-month-old female Holstein calves (˜90 kg body weight [BW]) that were raised on the Volcani Center's experimental farm were used in these experiments. During the experimental periods, each mammary gland was administered via the teat canal with 2 mL of vehicle, composed of sterile PBS containing 10% polyethylene glycol (Sigma, St. Louis, MO) and 10% Tween 80 (Sigma). In individual experiments, the vehicle was supplemented with Evans blue to analyze the penetration of this solution into the mammary epithelium, or with rapamycin to analyze its effect on cellular activities. The vehicle was administered using a sterile 22G IV cannula (Deltaven, Viadana, (MN) Italy), cut to ˜1.5 cm and inserted (without the needle) into the teat canal. […] In the relevant experiments, estrogen (0.1 mg/kg per day, Sigma) and progesterone (0.25 mg/kg per day, Sigma) were administered following the rapamycin treatment by daily subcutaneous injections for 4 consecutive days. The design of the studies was based on the distinct morphology and activity of the individual “quarters” (i.e., glands) of the bovine udder which can be individually affected. Thus, in studies analyzing the rapamycin effects, front or rear glands of each side of the calf served as internal controls for the other two rapamycin-administered glands. The dye Evans blue was added to one of the vehicle-treated glands to follow its penetration into the epithelial morphology in close and far regions from the teat (FIG. 1).\nImmunohistochemistry was performed on the 5-μm paraffin-embedded sections after antigen retrieval. The reaction with primary antibodies against β-casein (Barash lab), pS6 (Cell signaling Inc.), CK18 (GeneTex), and PCNA (BioLegend), was initiated by blocking the sections with 10% bovine serum albumen and 5% goat serum in 0.1% PBST for 1 h prior to overnight incubation with the first antibody at 4° C. Sections were washed and incubated with N-Histofine (Nichirei Biosciences, Tokyo, Japan) for 30 min at room temperature. Signals were generated with 3,3-diaminobenzidine (DAB) substrate (Vector Laboratories, Burlingame, CA).\nProteins from the parenchymal region of each mammary gland were extracted with RIPA buffer containing 10 mM Tris-HCl pH 7.5, 150 mM NaCl, 0.1% SDS, 1% sodium deoxycholate and 5 mM EDTA (Sigma), protease inhibitor cocktail and phosphatase inhibitor cocktail II (both from Sigma). Equal amounts of protein, determined by QPRO-BCA Kit Standard (Cyanagen, Bologna, Italy) according to the manufacturer's protocol, were subjected to SDS-PAGE. Fractionated proteins were transferred to nitrocellulose filters and the uploading of equal amounts of protein per sample was confirmed by staining the blot with Ponceau S (Sigma). The expression levels of phosphorylated S6 (pS6) and β-actin were determined according to the signals generated with their respective antibodies. Signals were generated with WESTAR Supernova (Cyanagen, Bologna, Italy) combined with Super Signal chemiluminescent substrate (Thermo Fisher Scientific), and detected in a Syngene analyzer (Cambridge, UK).\n(§3) To determine an effective concentration and administration interval, mammalian target of rapamycin (mTOR) responsiveness to rapamycin administration was studied in parenchymal regions that were close to and far from the teat. Rapamycin was delivered to the parenchymatic region of two calves at two concentrations (4.16 or 8.32 mg/gland per day). The calves were sacrificed 24 h or 48 h later and the udders were removed. […] Note that complete repression of mTOR activity was avoided in these experiments to preserve the self-renewing capability of the epithelial stem cells."}, "[4]": {"experiment": "Mammary tissue morphology and pathology after intramammary rapamycin (H&E)", "assay_type": "in vivo, bovine (Holstein calves)", "description": "as §2\nBovine mammary samples were fixed in Bouin's solution, dehydrated in a graded ethanol series (50% to 100%), cleared in xylene and embedded in paraffin. Paraffin sections (5 μm) were stained with hematoxylin and eosin (H&E; Sigma) to visualize the morphology of the mammary layers.\nas §3\nThe effect of 3 weeks of skip-a-day rapamycin administration (8.32 mg/gland per day) on stem cell self-renewal (FIGS. 3A-3F) was examined.\nTo study the effect of rapamycin administration and induced stem cell self-renewal on mammary cell proliferation and milk protein expression, front and rear mammary glands of three calves (six for each treatment) were infused with either vehicle or rapamycin for 3 weeks (8.3 mg/gland per day). […]"}, "[5]": {"test_system": "Notch1, Jagged1, Delta1, LGR4, LGR5", "experiment": "Relative gene expression of stem cell markers in treated glands (real-time PCR)", "assay_type": "in vivo, bovine (Holstein calves)", "conditions": "3 weeks skip-a-day rapamycin; not significant at P<0.05", "description": "FIG. 4A-4B: (FIG. 4A) Dispersed cells isolated from individual vehicle- and rapamycin-treated mammary glands were seeded in 96-well plates and cultured in mammary medium. At the indicated time points (arrows), cells were trypsinized, counted and reseeded. Inset: cell number at the end of the culture period. Bars represent mean±SEM. (FIG. 4B) Relative gene expression analysis of luminal progenitor marker (Stat5) and stem cell markers (Notch1, Jagged1, Delta1, LGR4, LGR5). N=4 for vehicle-treated and 3 for rapamycin-treated glands. Six wells of cells from each gland were analyzed.\nRNA was extracted from the parenchymal region of each mammary gland using TRIzol reagent and reverse-transcribed with the qScript Synthesis Kit (Quanta BioSciences, Beverly, MA). RNA quality and quantity were determined in a NanoDrop 1000 spectrophotometer (Thermo Fisher Scientific, Wilmington, DE). Quantitative real-time PCR analyses were performed in a StepOnePlus instrument (Applied Biosystems, Foster City, CA) in a […] reaction volume containing 1 μL cDNA, 5 μL PerfeCta SYBR Green FastMix, Rox (2X) (Quanta BioSciences) and 0.5 μL of the primers listed in Table 1. The thermal cycling conditions consisted of 20 s at 95° C. followed by 40 cycles of 3 s at 95° C. and 30 s at 60° C. […] Fold change (relative expression) was calculated using StepOne v2.1 and DataAssist v2.0 software (Applied Biosystems). […]"}, "bovine mammary cell": {"test_system": "bovine mammary cell", "conditions": "xanthosine administration; cited from earlier work"}, "[6]": {"conditions": "24 h after infusion, close to nipple, rapamycin 4.16 mg"}, "[7]": {"conditions": "24 h after infusion, close to nipple, rapamycin 8.32 mg"}, "[8]": {"conditions": "48 h after infusion, close to nipple, rapamycin 4.16 mg"}, "[9]": {"conditions": "48 h after infusion, close to nipple, rapamycin 8.32 mg"}, "[10]": {"conditions": "48 h after infusion, far from nipple, rapamycin 4.16 mg"}, "[11]": {"conditions": "48 h after infusion, far from nipple, rapamycin 8.32 mg"}}}
{"smiles": "CO[C@H]1C[C@@H]2CC[C@@H](C)[C@@](O)(O2)C(=O)C(=O)N2CCCC[C@H]2C(=O)O[C@H]([C@H](C)C[C@@H]2CC[C@@H](O)[C@H](OC)C2)CC(=O)[C@H](C)/C=C(\\C)[C@@H](O)[C@@H](OC)C(=O)[C@H](C)C[C@H](C)/C=C/C=C/C=C/1C", "note": "[Rapamycin]", "values": [{"measurement": "decrease in S6 phosphorylation", "setting": "[1]; 3 weeks skip-a-day, 8.32 mg/gland per day, immunoblot 48 h after termination", "value": 53, "unit": "%"}, {"measurement": "decrease in mTOR activity", "setting": "[1]; skip-a-day, 3-week intramammary administration", "value": "~50", "unit": "%"}, {"measurement": "propagation rate difference, cultures from rapamycin-treated vs vehicle-treated gland", "setting": "[2]; day 37 of culture", "value": 1.15, "unit": "fold"}, {"measurement": "propagation rate difference, cultures from rapamycin-treated vs vehicle-treated gland", "setting": "[2]; day 52 of culture", "value": 1.4, "unit": "fold"}, {"measurement": "propagation rate difference, cultures from rapamycin-treated vs vehicle-treated gland", "setting": "[2]; end of the culture period", "value": 2.6, "unit": "fold"}, {"measurement": "increase in total number of PCNA+ cells", "setting": "mammary epithelial cells", "value": 20, "unit": "%"}, {"measurement": "pS6/S6 relative to vehicle (100%)", "setting": "[3]; [6]", "value": "(66%)"}, {"measurement": "pS6/β-actin relative to vehicle (100%)", "setting": "[3]; [6]", "value": "(75%)"}, {"measurement": "pS6/S6 relative to vehicle (100%)", "setting": "[3]; [7]", "value": "(95%)"}, {"measurement": "pS6/β-actin relative to vehicle (100%)", "setting": "[3]; [7]", "value": "(63%)"}, {"measurement": "pS6/S6 relative to vehicle (100%)", "setting": "[3]; [8]", "value": "(71%)"}, {"measurement": "pS6/β-actin relative to vehicle (100%)", "setting": "[3]; [8]", "value": "(64%)"}, {"measurement": "pS6/S6 relative to vehicle (100%)", "setting": "[3]; [9]", "value": "(76%)"}, {"measurement": "pS6/β-actin relative to vehicle (100%)", "setting": "[3]; [9]", "value": "(81%)"}, {"measurement": "pS6/S6 relative to vehicle (100%)", "setting": "[3]; [10]", "value": "(93%)"}, {"measurement": "pS6/β-actin relative to vehicle (100%)", "setting": "[3]; [10]", "value": "(68%)"}, {"measurement": "pS6/S6 relative to vehicle (100%)", "setting": "[3]; [11]", "value": "(48%)"}, {"measurement": "pS6/β-actin relative to vehicle (100%)", "setting": "[3]; [11]", "value": "(56%)"}, {"measurement": "differences in morphology between vehicle- and rapamycin-treated glands", "setting": "[4]; 3 weeks 8.3 mg/gland per day, then estrogen and progesterone for 4 days", "value": "no apparent differences"}, {"measurement": "effect on mammary gland morphology", "setting": "[4]; 3 weeks skip-a-day, 8.32 mg/gland per day", "value": "not associated with any detectable effect"}, {"measurement": "effect on tissue morphology in the parenchymatic regions", "setting": "[4]; 4.16 or 8.32 mg/gland, 24 h or 48 h after administration", "value": "did not seem to have any effect"}, {"measurement": "pathological consequences of the amount and methodology chosen", "setting": "[4]; intramammary administration", "value": "did not have pathological consequences"}, {"measurement": "stem cell marker gene expression, more than in vehicle-treated counterparts", "setting": "[5]", "value": "8-20%"}]}
{"smiles": "O=c1[nH]c(=O)c2ncn([C@@H]3O[C@H](CO)[C@@H](O)[C@H]3O)c2[nH]1", "note": "[xanthosine]", "values": [{"measurement": "suppression of bovine mammary cell proliferation", "setting": "bovine mammary cell", "value": 50, "unit": "%"}]}
